Source: US20110183978A1, “Phenylpyri(mi)dinylazoles” (Bayer CropScience AG, priority 2009, published 2011)

Experiment: physchem
[1] = LogPA (logP of the stated pure compound or, in a mixture, of the main isomer, 1-substituted 3-aryl-1H-pyrazole)

chromatographic logP (pH 2.3, LogP (pH 2.3))	chromatographic logP (pH 2.7, logP (pH 2.7))	SMILES	also measured
3.59	3.59	Fc1ccc(-c2nn(C3CC3)cc2Br)cc1 [[VI-26], 4-Bromo-1-cyclopropyl-3-(4-fluorophenyl)-1H-pyrazole]	–
2.02	–	CC(C)(C)c1ccc(-c2c(-c3ccncc3)cnn2C2CCCCO2)cc1 (centres unmarked) [[X-9], 4-[5-(4-tert-butylphenyl)-1-(tetrahydro-2H-pyran-2-yl)-1H-pyrazol-4-yl]pyridine]	–
1.66	–	Clc1cccc(-c2c(-c3ccncc3)cnn2C2CCCCO2)c1Cl (centres unmarked) [[X-20], 4-[5-(2,3-dichlorophenyl)-1-(tetrahydro-2H-pyran-2-yl)-1H-pyrazol-4-yl]pyridine]	–
4.39	4.39	Fc1ccc(-c2nn(Cc3ccccc3F)cc2Br)cc1 [[VI-13], 4-Bromo-1-(2-fluorobenzyl)-3-(4-fluorophenyl)-1H-pyrazole]	–
1.78	–	FC(F)(F)Oc1ccc(-c2c(-c3ccncc3)cnn2C2CCCCO2)cc1 (centres unmarked) [[X-19], 4-{1-(tetrahydro-2H-pyran-2-yl)-5-[4-(trifluoromethoxy)phenyl]-1H-pyrazol-4-yl}pyridine]	–
4.43	4.43	CC(C1CC1)n1cc(Br)c(-c2ccc(F)cc2)n1 (centres unmarked) [[VI-22], 4-Bromo-1-(1-cyclopropylethyl)-3-(4-fluorophenyl)-1H-pyrazole]	–
0.96	–	CS(=O)(=O)c1ccc(-c2c(-c3ccncc3)cnn2C2CCCCO2)cc1 (centres unmarked) [[X-17], 4-{5-[4-(methylsulphonyl)phenyl]-1-(tetrahydro-2H-pyran-2-yl)-1H-pyrazol-4-yl}pyridine]	–

The remaining lines, values behind:

SMILES	chromatographic logP (pH 2.3, LogP (pH 2.3))	chromatographic logP (pH 2.7, logP (pH 2.7))	also measured
N#Cc1cccc(Cn2cc(Br)c(-c3ccc(F)cc3)n2)c1 [[VI-12], 3-{[4-Bromo-3-(4-fluorophenyl)-1H-pyrazol-1-yl]methyl}benzonitrile]	3.93	3.93	–
Cn1cc(B2OC(C)(C)C(C)(C)O2)c(-c2ccc(F)cc2)n1 [[V-9], 3-(4-Fluorophenyl)-1-methyl-4-(4,4,5,5-tetramethyl-1,3,2-dioxaborolan-2-yl)-1H-pyrazole]	3.47	3.47	–
CC(c1ccccc1F)n1cc(Br)c(-c2ccc(F)cc2)n1 (centres unmarked) [[VI-9], 4-bromo-3-(4-fluorophenyl)-1-[1-(2-fluorophenyl)ethyl]-1H-pyrazole]	4.77	3.63	–
COc1ccc(-c2nn(C3CCCCO3)cc2-c2cc(-n3cccn3)ncn2)cc1 (centres unmarked) [Compound 62]	–	–	chromatographic logP [1]: 3.32
CC(C)Cn1cc(-c2ccnc3c2CC(=O)N3)c(-c2ccc(F)cc2)n1 [Compound 147]	–	–	chromatographic logP [1]: 2.6
CC(C)C(=O)Nc1nccc(-c2cn(C(C)C)nc2-c2ccc(F)cc2)n1 [Compound 355]	–	–	chromatographic logP (LogPA): 2.55
CCOC(=O)Nc1cc(-c2cn(Cc3ccccc3F)nc2-c2ccc(F)cc2)ccn1 [Compound 266]	–	–	chromatographic logP (LogPA): 3.24
O=C(Nc1ccccc1)c1cc(-c2cn(C3CCCCO3)nc2-c2ccc(F)cc2)ccn1 (centres unmarked) [Compound 94]	–	–	chromatographic logP [1]: 4.34
Fc1ccc(-c2nn(CC3CC3(Cl)Cl)cc2Br)cc1 (centres unmarked) [[VI-10], 4-bromo-1-[(2,2-dichlorocyclopropyl)methyl]-3-(4-fluorophenyl)-1H-pyrazole]	4.43	4.43	–
CC(C)Nc1nccc(-c2c[nH]nc2-c2ccc(F)cc2)n1 [Compound 172]	–	–	chromatographic logP (LogPA): 1.37
Fc1ccc(-c2nn(Cc3ccncc3)cc2-c2ccncc2)cc1 [Compound 121]	–	–	chromatographic logP [1]: 0.25
COCCOCC(=O)Nc1cc(-c2cn(C)nc2-c2ccc(F)cc2)ccn1 [Compound 345]	–	–	chromatographic logP (LogPA): 1.96
COc1ccc(-c2nn(C3CCCCO3)cc2-c2ccnc(C)n2)cc1 (centres unmarked) [Compound 77]	–	–	chromatographic logP [1]: 2.27
Cn1cc(Br)c(-c2ccc(F)cc2)n1 [[V1-8], 4-Bromo-3-(4-fluorophenyl)-1-methyl-1H-pyrazole]	–	2.86	–
CC(C)n1cc(-c2ccnc(N)n2)c(-c2ccc(F)cc2)n1 [[III-a-1], 4-[3-(4-Fluorophenyl)-1-isopropyl-1H-pyrazol-4-yl]pyrimidin-2-amine]	–	1.54	–
